Test results from patent US20230085307A1, “PYRIDAZINONE COMPOUND AND HERBICIDE” (NISSAN CHEMICAL CORPORATION, priority 2019, published 2023).

Columns and labels:
[1] = test system: southern crabgrass; experiment: Test Example 5: herbicidal effect by foliage application, plastic box (Table 20, symbol F); format: in vivo, southern crabgrass (Digitaria ciliaris); conditions: 320 g/ha, foliage application after 14-day growth, evaluated three weeks after application
Method in brief: (§1)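 Plants were sown into sterilized diluvial soil under about 1.5 cm cover and kept in a greenhouse at 25° C. to 30° C. Fourteen days on, foliage received an even spray of the diluted emulsion. Herbicidal or crop effect was judged three weeks afterwards.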

[2] = test system: oval-leafed pondweed; experiment: Test Example 1: herbicidal activity, application before weed generation under submerged conditions (Table 16, symbol C); format: in vivo, oval-leafed pondweed (Monochoria vaginalis); conditions: amount of applied herbicide 320 g/ha
Method in brief: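 Emulsion formulation, water-diluted to set dose, was put onto the flooded surface (4 cm depth, alluvial soil) the same day weeds were sown and 2.5-leaf rice transplanted. After 3 weeks at 25-30 °C under glass, each species was rated 0 (≤5% kill) to 5 (≥90% kill).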

[3] = test system: lambsquarters; experiment: Test Example 4: herbicidal effect by soil treatment (Table 19, symbol O); format: in vivo, lambsquarters (Chenopodium album); conditions: amount of applied herbicide 320 g/ha
Method in brief: (§2)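 In this soil treatment, the formulated compound reached the seeds only through the soil: seeds were buried about 1.5 cm deep in sterilized diluvial soil, then the diluted emulsion was sprayed over the surface. After three weeks at 25° C. to 30° C. in a greenhouse, effects were graded on criteria from an earlier test.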

[4] = test system: persian speedwell; experiment: Test Example 4: herbicidal effect by soil treatment (Table 19, symbol R); format: in vivo, Persian speedwell (Veronica persica); conditions: amount of applied herbicide 320 g/ha
Method in brief: as §2

[5] = test system: barnyard grass; experiment: Test Example 3: herbicidal effect by foliage application, Wagner pot (Table 18, symbol H); format: in vivo, barnyard grass (Echinochloa crus-galli); conditions: 320 g/ha
Method in brief: (§3)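 Plants were sown in alluvial soil held under 0.1–0.5 cm standing water and grown 14 days in a greenhouse at 25–30 °C. An emulsifiable formulation, water-diluted to the set dose, was then sprayed onto the foliage, and effects were scored three weeks later using previously defined criteria.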

[6] = test system: rice flat sedge; experiment: Test Example 3: herbicidal effect by foliage application, Wagner pot (Table 18, symbol E); format: in vivo, rice flat sedge (Cyperus iria); conditions: 320 g/ha
Method in brief: as §3

[7] = test system: windgrass; experiment: Test Example 5: herbicidal effect by foliage application, plastic box (Table 20, symbol L); format: in vivo, windgrass (Apera spica-venti); conditions: 320 g/ha, foliage application after 14-day growth, evaluated three weeks after application
Method in brief: as §1

[8] = test system: chickweed; experiment: Test Example 4: herbicidal effect by soil treatment (Table 19, symbol P); format: in vivo, common chickweed (Stellaria media); conditions: amount of applied herbicide 320 g/ha
Method in brief: as §2

[9] = test system: late watergrass; experiment: Test Example 2: herbicidal activity, application during weed generation under submerged conditions (Table 17, symbol A); format: in vivo, late watergrass (Echinochloa oryzicola); conditions: AAH 320 g/ha; application during weed generation, submerged conditions
Method in brief: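 Alluvial soil in Wagner pots was flooded to 4 cm depth and sown with the three weeds together; pots were kept in a greenhouse at 25° C. to 30° C. At the one to two leaf stage, an emulsion formulation diluted in water to a set rate went onto the water surface; scored three weeks later.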

[10] = test system: velvetleaf; experiment: Test Example 5: herbicidal effect by foliage application, plastic box (Table 20, symbol M); format: in vivo, velvetleaf (Abutilon theophrasti); conditions: 320 g/ha, foliage application after 14-day growth, evaluated three weeks after application
Method in brief: as §1

[11] = test system: velvetleaf; experiment: Test Example 4: herbicidal effect by soil treatment (Table 19, symbol M); format: in vivo, velvetleaf (Abutilon theophrasti); conditions: amount of applied herbicide 320 g/ha
Method in brief: as §2

[12] = test system: windgrass; experiment: Test Example 4: herbicidal effect by soil treatment (Table 19, symbol L); format: in vivo, windgrass (Apera spica-venti); conditions: amount of applied herbicide 320 g/ha
Method in brief: as §2

[13] = test system: Chinese sprangletop; experiment: Test Example 3: herbicidal effect by foliage application, Wagner pot (Table 18, symbol D); format: in vivo, chinese sprangletop (Leptochloa chinensis); conditions: 320 g/ha
Method in brief: as §3

[14] = test system: lambsquarters; experiment: Test Example 5: herbicidal effect by foliage application, plastic box (Table 20, symbol O); format: in vivo, lambsquarters (Chenopodium album); conditions: 320 g/ha, foliage application after 14-day growth, evaluated three weeks after application
Method in brief: as §1

[15] = test system: persian speedwell; experiment: Test Example 5: herbicidal effect by foliage application, plastic box (Table 20, symbol R); format: in vivo, Persian speedwell (Veronica persica); conditions: 320 g/ha, foliage application after 14-day growth, evaluated three weeks after application
Method in brief: as §1

[16] = test system: Italian ryegrass; experiment: Test Example 5: herbicidal effect by foliage application, plastic box (Table 20, symbol K); format: in vivo, Italian ryegrass (Lolium multiflorum); conditions: 320 g/ha, foliage application after 14-day growth, evaluated three weeks after application
Method in brief: as §1

[17] = test system: green foxtail; experiment: Test Example 4: herbicidal effect by soil treatment (Table 19, symbol G); format: in vivo, green foxtail (Setaria viridis); conditions: amount of applied herbicide 320 g/ha
Method in brief: as §2

Row | SMILES | herbicidal effect on F: southern crabgrass (evaluation grade 0-5) [1] | Herbicidal effect, C: oval-leafed pondweed [2] | Herbicidal effect by soil treatment, O: lambsquarters [3] | Herbicidal effect by soil treatment, R: persian speedwell [4] | herbicidal effect on barnyard grass (H) [5] | herbicidal effect on rice flat sedge (E) [6] | herbicidal effect on L: windgrass (evaluation grade 0-5) [7] | Herbicidal effect by soil treatment, P: chickweed [8] | herbicidal effect rating, A: late watergrass [9] | herbicidal effect on M: velvetleaf (evaluation grade 0-5) [10] | Herbicidal effect by soil treatment, M: velvetleaf [11] | Herbicidal effect by soil treatment, L: windgrass [12] | herbicidal effect on Chinese sprangletop (D) [13] | herbicidal effect on O: lambsquarters (evaluation grade 0-5) [14] | herbicidal effect on R: persian speedwell (evaluation grade 0-5) [15] | herbicidal effect on K: Italian ryegrass (evaluation grade 0-5) [16] | Herbicidal effect by soil treatment, G: green foxtail [17]
1 | CCCC(=O)Oc1c(C)nn(C)c(=O)c1-c1c(-c2ccc(OC)cc2)sc2c(Cl)cccc12 [4-024] | 1 (Herbicidal rate of 5% or more and less than 20%) | 3 (Herbicidal rate of 40% or more and less than 70%) | 0 (Herbicidal rate of 5% or less (almost no effect)) | 0 (Herbicidal rate of 5% or less (almost no effect)) | 4 (Herbicidal rate of 70% or more and less than 90%) | 5 (Herbicidal rate of 90% or more (almost completely withered)) | 4 (Herbicidal rate of 70% or more and less than 90%) | 0 (Herbicidal rate of 5% or less (almost no effect)) | 3 (Herbicidal rate of 40% or more and less than 70%) | 4 (Herbicidal rate of 70% or more and less than 90%) | 0 (Herbicidal rate of 5% or less (almost no effect)) | 0 (Herbicidal rate of 5% or less (almost no effect)) | 3 (Herbicidal rate of 40% or more and less than 70%) | 3 (Herbicidal rate of 40% or more and less than 70%) | 4 (Herbicidal rate of 70% or more and less than 90%) | 4 (Herbicidal rate of 70% or more and less than 90%) | 2 (Herbicidal rate of 20% or more and less than 40%)
2 | CCCC(=O)Oc1c(C)nn(C)c(=O)c1-c1c(-c2ccccc2OCC)sc2c(Cl)cccc12 [4-026] | 3 (Herbicidal rate of 40% or more and less than 70%) | 4 (Herbicidal rate of 70% or more and less than 90%) | 0 (Herbicidal rate of 5% or less (almost no effect)) | 2 (Herbicidal rate of 20% or more and less than 40%) | 5 (Herbicidal rate of 90% or more (almost completely withered)) | 5 (Herbicidal rate of 90% or more (almost completely withered)) | 5 (Herbicidal rate of 90% or more (almost completely withered)) | 1 (Herbicidal rate of 5% or more and less than 20%) | 3 (Herbicidal rate of 40% or more and less than 70%) | 5 (Herbicidal rate of 90% or more (almost completely withered)) | 0 (Herbicidal rate of 5% or less (almost no effect)) | 0 (Herbicidal rate of 5% or less (almost no effect)) | 5 (Herbicidal rate of 90% or more (almost completely withered)) | 3 (Herbicidal rate of 40% or more and less than 70%) | 4 (Herbicidal rate of 70% or more and less than 90%) | 1 (Herbicidal rate of 5% or more and less than 20%) | 3 (Herbicidal rate of 40% or more and less than 70%)
